Several values for one entry are separate records, joined by “and”; a condition that tells them apart may be missing. Identical values can stand only once. Like-named read-outs stand apart in the source and are kept apart here.
Columns and labels:
[1] = system: Suit2-07 cells; experiment: Cell proliferation assay, GEM + ATR inhibitor (Incucyte confluence, 72 h); type: cell-based, human; details: Suit2-07; for EC50: Homo sapiens, 72 h, experiment ATRi (ATR inhibitor alone); for Response: R1; for Curve top: plateau of fitted curve, ratio drug/vehicle confluence;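 on all read-outs here: Suit2-07 cells grown in 96-well plates at 37 °C, 5% CO2, raw 72 h confluence taken without normalizing to starting confluence, each experiment done in triplicate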
Procedure: (§1) Cells were seeded at 5000 cells/well into 96-well flat bottom plates (Eppendorf) and allowed to attach overnight. […] Cells were incubated for 72 h at 37 °C and 5% CO2. Cell confluence readouts at 72 h were either normalized to their initial confluence using the Incucyte software (AsPC-1) or used without prior normalization (all others). […] Each experiment was performed in triplicates, the data was plotted as mean ± standard deviation (s.d.).

[2] = system: AsPC-1 cells; experiment: Cell proliferation assay, chemodrug + ATR inhibitor (Incucyte confluence, 72 h); details: for Curve slope / Curve bottom / Curve top: AsPC1, fitted dose-response curve; for Curve bottom / Curve top: relative response; for Raw data (confluence at 72 h/confluence at 0 h): Ceralasertib experiment;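 on all read-outs here: underlying read-out for every value is AsPC-1 confluence after 72 h incubation at 37 °C and 5% CO2, divided by that well's starting confluence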
Procedure: as §1

[3] = Experiment ATRi (ATR inhibitor alone)

SMILES: C[C@@H]1COCCN1c1cc(C2([S@](C)(=N)=O)CC2)nc(-c2cc[nH]c3nccc2-3)n1 [Ceralasertib]
- EC50 ([1]; -log10 of EC50 [M], read-out: pEC50 (converted)): 3.24e-06 M
- EC50 ([1]; mean (one replicate), read-out: EC50 mean): 3.24e-06 M
- EC50 ([1]; replicate R1, read-out: EC50): 3.24e-06 M
- Response ([1]; GEM+ATRi_dose1, GEM 0 nM + ATRi 10 nM, in % (unit assumed)): 99.44
- Response ([1]; GEM+ATRi_dose1, GEM 1 nM + ATRi 10 nM, in % (unit assumed)): 97.06
- Response ([1]; GEM+ATRi_dose1, GEM 3 nM + ATRi 10 nM, in % (unit assumed)): 98.33
- Response ([1]; GEM+ATRi_dose1, GEM 10 nM + ATRi 10 nM, in % (unit assumed)): 33.90
- Response ([1]; GEM+ATRi_dose1, GEM 30 nM + ATRi 10 nM, in % (unit assumed)): 18.26
- Response ([1]; GEM+ATRi_dose1, GEM 100 nM + ATRi 10 nM, in % (unit assumed)): 14.84
- Response ([1]; GEM+ATRi_dose1, GEM 300 nM + ATRi 10 nM, in % (unit assumed)): 14.60
- Response ([1]; GEM+ATRi_dose1, GEM 1000 nM + ATRi 10 nM, in % (unit assumed)): 10.84
- Response ([1]; GEM+ATRi_dose1, GEM 3000 nM + ATRi 10 nM, in % (unit assumed)): 13.52
- Response ([1]; GEM+ATRi_dose2, GEM 0 nM + ATRi 3 nM, in % (unit assumed)): 99.06
- Response ([1]; GEM+ATRi_dose2, GEM 1 nM + ATRi 3 nM, in % (unit assumed)): 97.53
- Response ([1]; GEM+ATRi_dose2, GEM 3 nM + ATRi 3 nM, in % (unit assumed)): 42.89
- Response ([1]; GEM+ATRi_dose2, GEM 10 nM + ATRi 3 nM, in % (unit assumed)): 18.83
- Response ([1]; GEM+ATRi_dose2, GEM 30 nM + ATRi 3 nM, in % (unit assumed)): 15.03
- Response ([1]; GEM+ATRi_dose2, GEM 100 nM + ATRi 3 nM, in % (unit assumed)): 14.03
- Response ([1]; GEM+ATRi_dose2, GEM 300 nM + ATRi 3 nM, in % (unit assumed)): 10.54
- Response ([1]; GEM+ATRi_dose2, GEM 1000 nM + ATRi 3 nM, in % (unit assumed)): 10.54
- Response ([1]; GEM+ATRi_dose2, GEM 3000 nM + ATRi 3 nM, in % (unit assumed)): 14.48
- Response ([1]; GEM+ATRi_dose3, GEM 0 nM + ATRi 30 nM, in % (unit assumed)): 99.04
- Response ([1]; GEM+ATRi_dose3, GEM 1 nM + ATRi 30 nM, in % (unit assumed)): 98.92
- Response ([1]; GEM+ATRi_dose3, GEM 3 nM + ATRi 30 nM, in % (unit assumed)): 74.44
- Response ([1]; GEM+ATRi_dose3, GEM 10 nM + ATRi 30 nM, in % (unit assumed)): 18.78
- Response ([1]; GEM+ATRi_dose3, GEM 30 nM + ATRi 30 nM): 15.93
- Response ([1]; GEM+ATRi_dose3, GEM 100 nM + ATRi 30 nM, in % (unit assumed)): 13.11
- Response ([1]; GEM+ATRi_dose3, GEM 300 nM + ATRi 30 nM, in % (unit assumed)): 12.75
- Response ([1]; GEM+ATRi_dose3, GEM 1000 nM + ATRi 30 nM, in % (unit assumed)): 9.23
- Response ([1]; GEM+ATRi_dose3, GEM 3000 nM + ATRi 30 nM, in % (unit assumed)): 13.00
- Response ([1]; experiment ATRi, ATRi 3 nM, GEM 0 nM, in % (unit assumed)): 99.07
- Response ([1]; experiment ATRi, ATRi 10 nM, GEM 0 nM, in % (unit assumed)): 99.08
- Response ([1]; experiment ATRi, ATRi 30 nM, GEM 0 nM, in % (unit assumed)): 98.55
- Response ([1]; experiment ATRi, ATRi 100 nM, GEM 0 nM, in % (unit assumed)): 98.02
- Response ([1]; experiment ATRi, ATRi 300 nM, GEM 0 nM, in % (unit assumed)): 95.91
- Response ([1]; experiment ATRi, ATRi 1000 nM, GEM 0 nM, in % (unit assumed)): 89.97
- Response ([1]; experiment ATRi, ATRi 3000 nM, GEM 0 nM, in % (unit assumed)): 57.79
- Response ([1]; experiment ATRi, ATRi 10000 nM, GEM 0 nM, in % (unit assumed)): 20.77
- Curve top ([1]; experiment GEM+ATRi_dose1): 0.15
- Curve top ([1]; experiment GEM+ATRi_dose2): 0.14
- Curve top ([1]; experiment GEM+ATRi_dose3): 0.13
- Curve slope [2, 3]: 2.93 and 3.34 and 3.10
- Curve bottom [2, 3]: 1.16 and 0.93 and 0.99
- Curve top [2, 3]: 0.45 and 0.34 and 0.35
- Curve slope ([2]; Experiment GEM+ATRi_dose1): 1.26 and 1.52 and 1.58
- Curve bottom ([2]; Experiment GEM+ATRi_dose1): 1.03 and 0.96 and 0.97
- Curve top ([2]; Experiment GEM+ATRi_dose1): 0.53 and 0.41 and 0.45
- Curve bottom ([2]; Experiment GEM+ATRi_dose2): 1.06 and 0.94 and 0.90
- Curve top ([2]; Experiment GEM+ATRi_dose2): 0.50 and 0.38 and 0.42
- Curve slope ([2]; Experiment GEM+ATRi_dose3): 1.68 and 1.97
- Curve bottom ([2]; Experiment GEM+ATRi_dose3): 0.98
- Curve top ([2]; Experiment GEM+ATRi_dose3): 0.46 and 0.35 and 0.39
- Raw data (confluence at 72 h/confluence at 0 h) ([2]; replicate R1, titrated drug dose 3 nM): 3.36
- Raw data (confluence at 72 h/confluence at 0 h) ([2]; replicate R1, titrated drug dose 10 nM): 3.44
- Raw data (confluence at 72 h/confluence at 0 h) ([2]; replicate R1, titrated drug dose 30 nM): 3.6
- Raw data (confluence at 72 h/confluence at 0 h) ([2]; replicate R1, titrated drug dose 100 nM): 3.35
- Raw data (confluence at 72 h/confluence at 0 h) ([2]; replicate R1, titrated drug dose 300 nM): 3.69
- Raw data (confluence at 72 h/confluence at 0 h) ([2]; replicate R1, titrated drug dose 1000 nM): 3.19
- Raw data (confluence at 72 h/confluence at 0 h) ([2]; replicate R1, titrated drug dose 3000 nM): 1.77
- Raw data (confluence at 72 h/confluence at 0 h) ([2]; replicate R1, titrated drug dose 10000 nM): 1.38
- Raw data (confluence at 72 h/confluence at 0 h) ([2]; replicate R2, titrated drug dose 3 nM): 3.66
- Raw data (confluence at 72 h/confluence at 0 h) ([2]; replicate R2, titrated drug dose 10 nM): 3.73
- Raw data (confluence at 72 h/confluence at 0 h) ([2]; replicate R2, titrated drug dose 30 nM): 3.9

Source: publication PMC11876601 (Molecular Systems Biology, 2025)
